According to patent publication US20260263618A1, “LIPID NANOPARTICLE FORMULATIONS AND COMPOSITIONS” (CAPSTAN THERAPEUTICS, INC., priority 2023, published 2026):

Assays:
[1] = Ionizable cationic lipid in plasma, liver and spleen of NHP 24 hours after tLNP, LC/MS/MS; format: in vivo, cynomolgus macaques
Method: Samples were taken from cynomolgus macaques that had been intravenously administered either BF1 or F5 tLNPs (two each) at a dosage of 3 mg mRNA/kg in the preceding example. The tLNPs were conjugated to anti-C05 mentioned in Example 2 as the targeting moiety. 24 hours after administration the animals were sacrificed and plasma, liver, and spleen tissue collected from two animals in each group and assessed by mass spectrometry for presence of these ionizable cationic lipids in order to assess biodegradability and biodistribution of these ionizable cationic lipids.
Briefly, plasma was stabilized for mass spectrometry by addition of 10 μL of formic acid per mL of K2EDTA plasma. Spleen and liver tissue were homogenized in 19 parts of homogenization buffer (50:40:10 0.1% formic acid in 1:1 methanol:acetone/10 mM ammonium formate with 0.2% formic acid/dimethylformamide (DMF)) to 1 part tissue (v/w) using a Geno/Grinder® (SPEX® SamplePrep) set to two minutes at 1500 rpms.
Calibration curves and quality control samples were prepared by spiking control matrix (plasma or homogenate) with CICL1 or ALC-0315 in DMF. The extraction was performed on wet ice by adding 300 μL of crashing solvent (0.1% formic acid in 1:1 methanol:acetonitrile) to 25 μL of sample to which 50 μL of internal standard was added (1:1 isopropyl alcohol:water). The extracts were mixed for four minutes at 1500 rpms and then centrifuged at 3000×g for ten minutes. 200 μL of supernatant was transferred to a clean 96 well plate for LC/MS/MS analysis.
Chromatography was performed on a Waters XBridge BEH C8 column (130 Å, 2.5 μm, 2.1×30 mm) using the following gradient. Mobile phase A (10 mM ammonium format in water with 0.2% formic acid) was held at 20% for 0.3 minutes before being reduced to 5% over […]. This condition was held for one minute before being returned to 80% B (0.1% formic acid in 1:1 methanol:acetonitrile) in 0.1 minutes. The column was then held at 80% B for 1.4 minutes. LC flow rate was held at 0.5 mL/min and the autosampler held at 2-8° C. The mass spectrum was obtained with a triple quadrupole apparatus using atmospheric pressure ionization (Sciex).
Quantitation was performed using a 1/X2 quadratic regression using the peak area for transition 1013.6→968A (CICL1) or 766.6-748.4 (ALC-0315) over peak area of transition 1040.6→995.4 of the internal standard.

[2] = Time course of ionizable cationic lipid in plasma, spleen and liver of mice, LC-MS; format: in vivo; conditions: for plasma levels of lipid at 7 days: 2 mg/kg tLNP (F9 or BF1) targeted to mouse CD8, FIG. 13C
Method: To obtain more detailed data a similar experiment was conducted in mice where it was possible to obtain a time course of disappearance of the ionizable cationic lipid and the encapsulated mRNA as well. Mice were intravenously administered 2 mg/kg tLNP of composition BF1 (comprising ALC-0315) or F9 (comprising CICL1) targeted to mouse CD8 and encapsulating an anti-human CD19 CAR, and monitored through 7 days. At each timepoint, 3 mice were sacrificed, and liver, spleen, and plasma were processed for LC-MS-based detection of lipid concentration and digital PCR detection of the mRNA. In plasma, mRNA level was normalized to a known amount of mRNA spiked in a control. In spleen and liver mRNA level was normalized to mRNA for the housekeeping gene GAPDH.

[3] = Tolerability in non-human primates: liver enzymes ALT and AST; format: in vivo; conditions: ionizable cationic lipid in F9 tLNP, second NHP study
Method: A second study was conducted with F9 tLNP to evaluate the tolerability and engineering efficiency of (1) a single administration of a CD5-targeted tLNP (humanized 5D7 targeting antibody) with an mRNA payload encoding an anti-CD19 CAR, (2) a single administration of a CD8-targeted tLNP (chimeric RPA-T8 targeting antibody) with an mRNA payload also encoding the anti-CD19 CAR, and (3) repeat administration (3 doses) of the CD5-targeted tLNP. The CD5-targeted tLNP was administered as a single dose at 3.0 mg/kg (Group 2, n=2) or as a repeat dose of 1.0 mg/kg at 72-hour intervals (Q72h) for three doses (Group 5, n=2). […] As a control, PBS was administered (Group 1, n=1). All tLNP tested in the second study utilized composition F9. […] Clinical observations, clinical pathology, and toxicology biomarkers were evaluated to assess safety and tolerability. Pharmacological assessment was carried out by flow cytometry detection of anti-CD19 CAR in immune cell subsets in peripheral blood and tissues (spleen, bone marrow, lymph node, and liver).
A third study in NHP with F9 tLNP targeted to C08 and encapsulating an mRNA encoding an anti-CD19 CAR was also conducted and the single dose liver enzyme results of all three studies (doses ranging from 3.5 to 3.0 mg mRNA/kg) compiled into single plots of AST and ALT levels for a more global assessment (FIG. 12K).

[4] = target: signal regulatory protein α (SIRPα) (Homo sapiens, UniProt P78324); conditions: cited from earlier work
signal regulatory protein α (SIRPα), sequence (P78324 31-504): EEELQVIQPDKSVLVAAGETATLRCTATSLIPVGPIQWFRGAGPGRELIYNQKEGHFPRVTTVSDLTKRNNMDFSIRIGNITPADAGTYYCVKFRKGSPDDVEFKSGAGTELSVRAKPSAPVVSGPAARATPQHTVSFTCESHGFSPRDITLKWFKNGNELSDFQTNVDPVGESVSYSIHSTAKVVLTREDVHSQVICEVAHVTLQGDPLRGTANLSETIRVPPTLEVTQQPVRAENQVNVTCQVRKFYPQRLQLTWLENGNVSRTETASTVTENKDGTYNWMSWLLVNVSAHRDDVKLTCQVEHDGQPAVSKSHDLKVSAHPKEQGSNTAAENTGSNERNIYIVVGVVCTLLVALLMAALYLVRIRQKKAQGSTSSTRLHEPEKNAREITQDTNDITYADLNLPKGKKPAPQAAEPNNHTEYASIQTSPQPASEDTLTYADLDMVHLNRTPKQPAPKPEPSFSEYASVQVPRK

| Molecule | concentration remaining in blood, fold greater (than CICL1) ([1]; 24 hours after 3 mg mRNA/kg tLNP, FIG. 13B) | plasma levels of lipid at 7 days [2] | lipid levels in spleen and liver throughout the 7 days ([2]; FIGS. 13D-E) | tolerability [3] | concentrations in blood, liver, and spleen relative to each other ([1]; 24 hours) | spleen concentration, fold less than for ALC-0315 ([1]; 24 hours) | amount of lipid present in blood, liver, and spleen ([1]; 24 hours after 3 mg mRNA/kg tLNP) | biodegradability compared with ALC-0315 ([1]; clearance data) | time after administration by which levels were falling in the spleen ([2]; FIG. 13D) | time after administration by which levels were falling in the liver ([2]; FIG. 13E) | binding affinity to SIRPα, fold stronger than full-length CD47 protein [4] |
| --- | --- | --- | --- | --- | --- | --- | --- | --- | --- | --- | --- |
| CCCCCCCCC(CCCCCC)C(=O)OCCCCCCN(CCCCO)CCCCCCOC(=O)C(CCCCCC)CCCCCCCC (stereo not drawn) [ALC-0315, [(4-Hydroxybutyl)azanediyl)di(hexane-6,1-diyl) bis(2-hexyldecanoate), reference compound] | about 6 fold | still detected | remained almost unchanged | – | – | – | – | – | – | – | – |
| CCCCCCCCC(=O)OCC(COC(=O)CCCCCCCC)CC(=O)OCCN(CCOC(=O)CC(COC(=O)CCCCCCCC)COC(=O)CCCCCCCC)C(=O)OCCN(C)C [CICL1] | – | returned to baseline | – | well tolerated | ≤ 2 fold | ~35 fold | only very small amounts | much more biodegradable | ≤ 1 h | ≤ 2 h | – |
| NYTCEVTELSREGKTVIELK (SEQ ID NO: 3) [CD47 peptide] | – | – | – | – | – | – | – | – | – | – | 10 fold |
